Experimental data published in patent US20260374754A1, “N-((ISOQUINOLIN-6-YL)METHYL)-1H-PYRAZOLE-4-CARBOXAMIDE DERIVATIVES AS PLASMA KALLIKREIN INHIBITORS FOR THE TREATMENT OF HEREDITARY ANGIODEMA” (Takeda Pharmaceutical Company Limited, priority 2022, published 2026).

target: human activated kallikrein enzyme (Homo sapiens, UniProt P03952); experiment: Inhibition of human activated plasma kallikrein, fluorogenic PFR-AMC substrate, 500 pM enzyme format; format: biochemical; details: 500 pM activated kallikrein; 300 μM PFR-AMC; 30 min preincubation; 10 min room temperature; pH 7.5; read-out: Primary Dose Response Assay: Average EC50
How it was run: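 Using fluorogenic PFR-AMC at 300 μM, cleavage by 500 pM human activated kallikrein ran 10 min at room temperature, read at 460 nm emission (380 nm excitation). Enzyme and compounds were first preincubated 30 min in 20 mM Tris pH 7.5, 150 mM NaCl, 1 mM EDTA, 0.1% PEG-400, 0.1% Triton X-100.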

Chain of human activated kallikrein enzyme (P03952 391-638 limits assumed): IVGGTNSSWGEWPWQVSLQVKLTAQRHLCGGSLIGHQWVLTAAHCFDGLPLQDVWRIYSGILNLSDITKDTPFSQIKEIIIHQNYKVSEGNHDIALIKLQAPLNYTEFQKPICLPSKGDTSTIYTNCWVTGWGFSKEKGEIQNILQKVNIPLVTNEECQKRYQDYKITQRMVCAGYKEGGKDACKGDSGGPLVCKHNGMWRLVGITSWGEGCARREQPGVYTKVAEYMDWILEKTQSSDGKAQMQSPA
Chain of human activated kallikrein enzyme (P03952 20-390 partner limits assumed): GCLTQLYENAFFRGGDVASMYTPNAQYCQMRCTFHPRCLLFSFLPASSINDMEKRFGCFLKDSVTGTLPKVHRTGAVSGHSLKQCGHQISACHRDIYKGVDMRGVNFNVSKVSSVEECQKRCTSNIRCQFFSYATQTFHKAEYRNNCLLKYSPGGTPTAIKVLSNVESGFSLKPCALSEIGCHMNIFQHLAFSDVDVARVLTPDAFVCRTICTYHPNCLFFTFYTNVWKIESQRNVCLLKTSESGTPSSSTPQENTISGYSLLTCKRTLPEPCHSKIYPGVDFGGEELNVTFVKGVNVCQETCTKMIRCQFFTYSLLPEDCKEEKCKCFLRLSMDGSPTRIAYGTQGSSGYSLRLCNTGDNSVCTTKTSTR

| SMILES | EC50 [nM] |
| --- | --- |
| Cc1cc2c(N)nccc2c(C)c1CNC(=O)c1cnn(Cc2ccc(CC(=O)N3C[C@@H]4[C@@H](CO)[C@@H]4C3)cc2)c1 [Example 208, N-((1-amino-5,7-dimethylisoquinolin-6-yl)methyl)-1-(4-(2-((1R,5S,6r)-6-(hydroxymethyl)-3-azabicyclo[3.1.0]hexan-3-y1)-2-oxoethyl)benzyl)-1H-pyrazole-4-carboxamide] | 10 to 100 |
| Cc1cc2c(N)nccc2c(C)c1CNC(=O)c1cnn(Cc2ccc(CC(=O)N3C[C@@H]4[C@H](C3)[C@@H]4C(=O)O)cc2)c1 [Example 210, (1R,5S,6s)-3-(2-(4-((4-(((1-amino-5,7-dimethylisoquinolin-6-yl)methyl)carbamoyl)-1H-pyrazol-1-yl)methyl)phenyl)acetyl)-3-azabicyclo[3.1.0]hexane-6-carboxylic acid] | 1 to 10 |
| CCOC(=O)[C@H]1[C@@H]2CN(C(=O)Cc3ccc(Cn4cc(C(=O)NCc5c(C)cc6c(N)nccc6c5C)cn4)cc3)C[C@@H]21 [Example 212, ethyl (1R,SS,6r)-3-(2-(4-((4-(((1-amino-5,7-dimethylisoquinolin-6-y1)methyl)carbamoyl)-1H-pyrazol-1-yl)methyl)phenyl)acetyl)-3-azabicyclo[3.1.0]hexane-6-carboxylate] | 10 to 100 |
| Cc1cc2c(N)nccc2c(C)c1CNC(=O)c1cnn(Cc2ccc(CC(=O)N3C[C@@H]4[C@H](C3)[C@H]4C(=O)O)cc2)c1 [Example 213, (1R,5S,6r)-3-(2-(4-((4-(((1-amino-5,7-dimethylisoquinolin-6-yl)methyl)carbamoyl)-1H-pyrazol-1-yl)methyl)phenyl)acetyl)-3-azabicyclo[3.1.0]hexane-6-carboxylic acid] | 10 to 100 |
| Cc1cc2c(N)nccc2c(C)c1CNC(=O)c1cnn(Cc2ccc(CC(=O)N3CC4CC(C4)C3)cc2)c1 [Example 215, 1-(4-(2-(3-azabicyclo[3.1.1]heptan-3-yl)-2-oxoethyl)benzyl)-N-((1-amino-5,7-dimethylisoquinolin-6-yl)methyl)-1H-pyrazole-4-carboxamide] | 1 to 10 |
| Cc1cc2c(N)nccc2c(C)c1CNC(=O)c1cnn(Cc2ccc(CC(=O)N3CC4CC4(C(=O)O)C3)cc2)c1 (stereo not shown) [Example 216, 3-(2-(4-((4-(((1-amino-5,7-dimethylisoquinolin-6-yl)methyl)carbamoyl)-1H-pyrazol-1-yl)methyl)phenyl)acetyl)-3-azabicyclo[3.1.0]hexane-1-carboxylic acid] | 10 to 100 |
| COC(=O)C12CC1CN(C(=O)Cc1ccc(Cn3cc(C(=O)NCc4c(C)cc5c(N)nccc5c4C)cn3)cc1)C2 (stereo not shown) [Example 217, methyl 3-(2-(4-((4-(((1-amino-5,7-dimethylisoquinolin-6-yl)methyl)carbamoyl)-1H-pyrazol-1-yl)methyl)pheny1)acetyl)-3-azabicyclo[3.1.0]hexane-1-carboxylate] | 1 to 10 |
| Cc1cc2c(N)nccc2c(C)c1CNC(=O)c1cnn(Cc2ccc(CC(=O)N3C(C)CCC3C)cc2)c1 (stereo not shown) [Example 218, N-((1-amino-5,7-dimethylisoquinolin-6-y1)methyl)-1-(4-(2-(2,5-dimethylpyrrolidin-1-yl)-2-oxoethyl)benzyl)-1H-pyrazole-4-carboxamide] | 1 to 10 |
| Cc1cc2c(N)nccc2c(C)c1CNC(=O)c1cnn(Cc2ccc(CC(=O)N(C)Cc3ccccc3)cc2)c1 [Example 220, N-((1-amino-5,7-dimethylisoquinolin-6-yl)methyl)-1-(4-(2-(benzyl(methyl)amino)-2-oxoethyl)benzyl)-1H-pyrazole-4-carboxamide] | 1 to 10 |
| Cc1cc2c(N)nccc2c(C)c1CNC(=O)c1cnn(Cc2ccc(CC(=O)NC34CC(C3)C4)cc2)c1 [Example 221, N-((1-amino-5,7-dimethylisoquinolin-6-yl)methyl)-1-(4-(2-(bicyclo[1.1.1]pentan-1-ylamino)-2-oxoethyl)benzyl)-1H-pyrazole-4-carboxamide] | 1 to 10 |
| Cc1cc2c(N)nccc2c(C)c1CNC(=O)c1cnn(Cc2ccc(CC(=O)N3CCCCC3)cc2)c1 [Example 223, N-((1-amino-5,7-dimethylisoquinolin-6-yl)methyl)-1-(4-(2-oxo-2-(piperidin-1-yl)ethyl)benzyl)-1H-pyrazole-4-carboxamide] | 1 to 10 |
| Cc1cc2c(N)nccc2c(C)c1CNC(=O)c1cnn(Cc2ccc(CC(=O)N3CCOCC3)cc2)c1 [Example 225, N-((1-amino-5,7-dimethylisoquinolin-6-y1)methyl)-1-(4-(2-morpholino-2-oxoethyl)benzyl)-1H-pyrazole-4-carboxamide] | 1 to 10 |
| Cc1cc2c(N)nccc2c(C)c1CNC(=O)c1cnn(Cc2ccc(CC(=O)Nc3ccccc3)cc2)c1 [Example 227, N-((1-amino-5,7-dimethylisoquinolin-6-yl)methyl)-1-(4-(2-oxo-2-(phenylamino)ethyl)benzyl)-1H-pyrazole-4-carboxamide] | 10 to 100 |
| Cc1cc2c(N)nccc2c(C)c1CNC(=O)c1cnn(Cc2ccc(CC(=O)N(C)c3ccccc3)cc2)c1 [Example 228, N-((1-amino-5,7-dimethylisoquinolin-6-yl)methyl)-1-(4-(2-(methyl(phenyl)amino)-2-oxoethyl)benzyl)-1H-pyrazole-4-carboxamide] | 1 to 10 |
| Cc1cc2c(N)nccc2c(C)c1CNC(=O)c1cnn(Cc2ccc(CC(=O)NCc3ccccc3)cc2)c1 [Example 229, N-((1-amino-5,7-dimethylisoquinolin-6-yl)methyl)-1-(4-(2-(benzylamino)-2-oxoethyl)benzyl)-1H-pyrazole-4-carboxamide] | 10 to 100 |
| Cc1cc2c(N)nccc2c(C)c1CNC(=O)c1cnn(Cc2ccc(CC(N)=O)cc2)c1 [Example 231, 1-(4-(2-amino-2-oxoethyl)benzyl)-N-((1-amino-5,7-dimethylisoquinolin-6-yl)methyl)-1H-pyrazole-4-carboxamide] | 10 to 100 |
| Cc1cc2c(N)nccc2c(C)c1CNc1cc(NCc2ccc3ccccc3c2)ncn1 [Example 233, N4-((1-amino-5,7-dimethylisoquinolin-6-yl)methyl)-N6-(naphthalen-2-ylmethyl)pyrimidine-4,6-diamine] | 10 to 100 |
| Cc1cc2c(N)nccc2c(C)c1CNc1ncnc(NCc2ccc(Cn3cccn3)cc2)c1F [Example 234, N4-(4-((1H-pyrazol-1-yl)methyl)benzyl)-N6-((1-amino-5,7-dimethylisoquinolin-6-yl)methyl)-5-fluoropyrimidine-4,6-diamine] | 10 to 100 |

Now from value to molecule:

| EC50 [nM] | SMILES |
| --- | --- |
| 1 to 10 | Cc1cc2c(N)nccc2c(C)c1CNC(=O)c1cnn(Cc2ccc(CC(=O)N3C[C@@H]4[C@@H](CF)[C@@H]4C3)cc2)c1 [Example 207, N-((1-amino-5,7-dimethylisoquinolin-6-yl)methyl)-1-(4-(2-((1R,5S,6r)-6-(fluoromethyl)-3-azabicyclo[3.1.0]hexan-3-y1)-2-oxoethyl)benzyl)-1H-pyrazole-4-carboxamide] |
| < 1 | Cc1cc2c(N)nccc2c(C)c1CNC(=O)c1cnn(Cc2ccc(CC(=O)N3C[C@@H]4[C@H](CO)[C@@H]4C3)cc2)c1 [Example 209, N-((1-amino-5,7-dimethylisoquinolin-6-y1)methyl)-1-(4-(2-((1R,5S,6s)-6-(hydroxymethyl)-3-azabicyclo[3.1.0]hexan-3-y1)-2-oxoethyl)benzyl)-1H-pyrazole-4-carboxamide] |
| < 1 | CCOC(=O)[C@@H]1[C@@H]2CN(C(=O)Cc3ccc(Cn4cc(C(=O)NCc5c(C)cc6c(N)nccc6c5C)cn4)cc3)C[C@@H]21 [Example 211, ethyl (1R,5S,6s)-3-(2-(4-((4-(((1-amino-5,7-dimethylisoquinolin-6-y1)methyl)carbamoyl)-1H-pyrazol-1-yl)methyl)phenyl)acetyl)-3-azabicyclo[3.1.0]hexane-6-carboxylate] |
| < 1 | Cc1cc2c(N)nccc2c(C)c1CNC(=O)c1cnn(Cc2ccc(CC(=O)N3CC4C(C3)C4(F)F)cc2)c1 (stereo not shown) [Example 214, N-((1-amino-5,7-dimethylisoquinolin-6-yl)methyl)-1-(4-(2-(6,6-difluoro-3-azabicyclo[3.1.0]hexan-3-yl)-2-oxoethyl)benzyl)-1H-pyrazole-4-carboxamide] |
| < 1 | Cc1cc2c(N)nccc2c(C)c1CNC(=O)c1cnn(Cc2ccc(CC(=O)N3CCC3)cc2)c1 [Example 219, N-((1-amino-5,7-dimethylisoquinolin-6-yl)methyl)-1-(4-(2-(azetidin-1-yl)-2-oxoethyl)benzyl)-1H-pyrazole-4-carboxamide] |
| < 1 | Cc1cc2c(N)nccc2c(C)c1CNC(=O)c1cnn(Cc2ccc(CC(=O)N(C)C3CC3)cc2)c1 [Example 224, N-((1-amino-5,7-dimethylisoquinolin-6-yl)methyl)-1-(4-(2-(cyclopropyl(methyl)amino)-2-oxoethyl)benzyl)-1H-pyrazole-4-carboxamide] |
| < 1 | CCN(CC)C(=O)Cc1ccc(Cn2cc(C(=O)NCc3c(C)cc4c(N)nccc4c3C)cn2)cc1 [Example 226, N-((1-amino-5,7-dimethylisoquinolin-6-yl)methyl)-1-(4-(2-(diethylamino)-2-oxoethyl)benzyl)-1H-pyrazole-4-carboxamide] |
| < 1 | CNC(=O)Cc1ccc(Cn2cc(C(=O)NCc3c(C)cc4c(N)nccc4c3C)cn2)cc1 [Example 230, N-((1-amino-5,7-dimethylisoquinolin-6-y1)methy1)-1-(4-(2-(methylamino)-2-oxoethyl)benzyl)-1H-pyrazole-4-carboxamide] |
| < 1 | Cc1cc2c(N)nccc2c(C)c1CNC(=O)c1cnn(Cc2ccc(CC(=O)N3CCCC3)cc2)c1 [Example 232, N-((1-amino-5,7-dimethylisoquinolin-6-yl)methyl)-1-(4-(2-oxo-2-(pyrrolidin-1-yl)ethyl)benzyl)-1H-pyrazole-4-carboxamide] |
| < 1 | Cc1cc2c(N)nccc2c(C)c1CNc1cc(N(C)Cc2ccc(Cn3cccn3)cc2)cnn1 [Example 235, N5-(4-((1H-pyrazol-1-yl)methyl)benzyl)-N3-((1-amino-5,7-dimethylisoquinolin-6-yl)methyl)-N5-methylpyridazine-3,5-diamine] |
